{"source": "patent US20240390377A1", "about": "“COMPOSITION FOR THE PREVENTION OR TREATMENT OF NEURODEGENERATIVE OR MOTOR NEURON DISEASES COMPRISING HALOFUGINONE AS AN ACTIVE INGREDIENT” (CURAMYS CO., LTD., priority 2022, published 2024)", "key": {"[1]": {"system": "G93A mutant SOD1 mouse-derived fibroblasts", "assay": "Real-time qRT-PCR analysis of ALS animal model-derived fibroblasts", "format": "cell-based", "conditions": "low or high concentration halofuginone for 24 hours; elevation vs Non-TG fibroblasts (FIG. 5a)", "excerpt": "Specifically, primary fibroblasts were isolated from skeletal muscle of 120-day-old non-transformed or G93A mutant SOD1 transgenic mice of Example 4. The excised tissue was placed on 100-mm culture dishes containing HBSS (Hanks' Balanced Salt Solution; Gibco, cat #14175095) and penicillin-streptomycin (Cat #15070-063, Thermo Fisher Scientific) without calcium and magnesium. Muscle tissue was cut on ice blocks. Then, the tissue was cut into 1 mm pieces and enzymatically reacted with 0.2% IV type collagenase (Sigma) at 37° C. for 1 hour. The enzymatic reaction was stopped by the addition of 10 ml of FBS (Gibco). […]\nSpecifically, total RNA was isolated from C2C12 cells in Example 1, fibroblasts in Example 5, and the lumbar spinal cord of mice in Example 6 using the FavorPrep™ Tri-RNA Reagent (Favorgen). […] The concentration of total RNA was measured at 260 nm absorbance using a spectrophotometer (NanoDrop Spectrophotometer ND-2000, Thermo Scientific). cDNA was synthesized from 1 μg of total RNA using the ReverTra Ace-α™ (Toyobo) according to the manufacturers protocol. Quantitative RT-PCR was performed using the SYBR Green ExcelTaq™ 2× Fast Q-PCR Master Mix (TQ1200, Smobio) on a thermocycler (CFX Connect Real-Time PCR Detection System, BIO-RAD) with the primers listed in Table 3 below. […]"}, "[2]": {"system": "G93A mutant SOD1 transgenic mice", "assay": "Real-time qRT-PCR analysis of lumbar spinal cord in ALS animal model", "format": "in vivo, mouse", "description": "(§1) As a control group, non-transgenic mice were injected intraperitoneally (i.p.) with vehicle (DMSO) in the same manner for the same period of time.\nSpecifically, total RNA was isolated from C2C12 cells in Example 1, fibroblasts in Example 5, and the lumbar spinal cord of mice in Example 6 using the FavorPrep™ Tri-RNA Reagent (Favorgen). The lumbar spinal cord was isolated from the mouse in Example 6 and stored frozen at −80° C. until the experiment. The concentration of total RNA was measured at 260 nm absorbance using a spectrophotometer (NanoDrop Spectrophotometer ND-2000, Thermo Scientific). cDNA was synthesized from 1 μg of total RNA using the ReverTra Ace-α™ (Toyobo) according to the manufacturers protocol. Quantitative RT-PCR was performed using the SYBR Green ExcelTaq™ 2× Fast Q-PCR Master Mix (TQ1200, Smobio) on a thermocycler (CFX Connect Real-Time PCR Detection System, BIO-RAD) with the primers listed in Table 3 below. Fluorescence data were analyzed with Bio-Rad CFX Manager 3.1 software, and control versus relative mRNA expression was calculated by the 2AT) method. Experiments were performed four times on all samples. All primers were designed using Primer3 online software, and GAPDH was used as a control group.\n(§2) In addition, to investigate the motor neuron source of the spinal cord, motor neurons of the lumbar spinal cord were observed and counted in the same manner as described in Example 9 (FIG. 9d), and real-time qRT-PCR and Western blot analysis were performed in the same manner as described in Example 11 and Example 12 to quantitatively analyze the expression of ChAT mRNA (FIG. 9e) and ChAT protein (FIG. 9f).\nSpecifically, Halofuginone was administered to G93A mutant SOD1 mice in the same manner as described in <Example 6>, and lumbar spinal cord was isolated after 120 days of age of mice were sacrificed. Then, mRNA expression of inflammation-related factors and neuronal cell death-related factors of CNS was confirmed by performing real-time qRT-PCT analysis in the same manner as in Example 11 (FIG. 11a), and protein expression of neuronal cell death-related factors was confirmed by performing Western blot analysis in the same manner as in Example 12 (FIG. 11b). Since the role (inflammatory or anti-inflammatory effect) differs according to the M1 or M2 subtype of microglia, the expression of M1 marker (iNOS, CD86), M2 marker (arginase 1) and pro-inflammatory factors (IFN-a, TNF-a, IL-1b, and IL-6) were confirmed as factors related to inflammation of CNS. In addition, the expression of caspase-3, bax, and bcl-2 was confirmed as factors related to neuronal apoptosis."}, "[3]": {"system": "G93A mutant SOD1 transgenic mice", "assay": "Western blot analysis of lumbar spinal cord in ALS animal model", "format": "in vivo, mouse", "description": "as §1\nSpecifically, the lumbar spinal cord or knee joint of the mouse of Example 6 was separated and immediately frozen at −80° C. Each lumbar spinal cord or knee joint was then homogenized and chemically treated to obtain cells. The chemically treated cells, the C2C12 cells of Example 1 or the fibroblasts of Example 5 were dissolved in a RIPA buffer (Thermo, MA, USA) with a protease inhibitor and a phosphatase inhibitor (Roche, IN, USA) and incubated on ice for 30 minutes. After centrifugation of the lysate at 13,000 rpm at 4° C. for 20 min, insoluble substances were removed. Protein concentrations were measured by BCA analysis (Pierce Biotechnology). Equal volumes of cell lysate were loaded onto SDS-PAGE gels for electrophoresis, and transferred onto nitrocellulose membranes (Amersham Protran 0.2 um NC, Amersham Pharmacia Biotech, Piscataway, NJ, USA). The membranes were then blocked with 5% (w/v) skimmilk in 1×TBST for 1 h at room temperature. After blocking, anti-RB-actin antibody (1:5000; Santa Cruz, cat #sc47778), anti-Smad2 antibody (1:1000; Cell Signaling, cat #5339), anti-p-Smad2 antibody (1:1000; Cell Signaling, cat #3108), anti-TGF-β1 antibody (1:1000; Santa Cruz, cat #sc130348), anti-α-SMA antibody (1:10000; abcam cat #ab7817), anti-MyoD antibody (1:1000; cat #sc377460), anti-collagen|antibody (1:1000; abcam cat #ab21286), anti-cleaved caspase-3 antibody (1:1000; Cell Signaling, cat #9661), anti-bax antibody (1:500; Santa Cruz, cat #sc493), anti-bcl2 antibody (1:1000; Novus Biologics, cat #NB100-56098), anti-ChAT antibody (1:1000; Millipore, cat #AB144) were treated and incubated overnight at 4° C. […] The membranes were then washed, briefly incubated with the SuperSignal West Pico Plus Chemical Substructure (Pierce Biotechnology) according to the manufacturer's procedure, and quantified with an image analyzer (Amersham Pharmacia Biotech, Piscataway, NJ, USA). β-actin was used as an internal control group. The concentration measurement of protein intensity was quantified using Image J (National Institutes of Health).\nas §2, with “9f). […]” for “9f).”"}, "[4]": {"conditions": "120 days of age, change in DMSO TG vs DMSO Non-TG (FIG. 11b)"}}}
{"smiles": "O=C(C[C@H]1NCCC[C@@H]1O)Cn1cnc2cc(Br)c(Cl)cc2c1=O", "note": "(racemic) [halofuginone]", "values": [{"measurement": "elevated mRNA level of TGF-β, α-SMA and Col-I", "setting": "[1]", "result": "attenuated"}, {"measurement": "mRNA level of ChAT in lumbar spinal cord", "setting": "[2]; 120-day-old mice, compared to DMSO Non-TG group (FIG. 9e)", "result": "preserved similarly"}, {"measurement": "increase in mRNA levels of M1 markers (iNOS, CD86) in lumbar spinal cord", "setting": "[2]; 120 days of age (FIG. 11a)", "result": "inhibited"}, {"measurement": "increase in mRNA levels of proinflammatory factors (IFN-a, TNF-a, IL-1b, IL-6) in lumbar spinal cord", "setting": "[2]; 120 days of age (FIG. 11a)", "result": "inhibited"}, {"measurement": "mRNA level of bcl-2 in lumbar spinal cord", "setting": "[2]; 120 days of age, decreased in DMSO TG group (FIG. 11a)", "result": "preserved"}, {"measurement": "ChAT expression (protein) in lumbar spinal cord", "setting": "[3]; 120-day-old mice, compared to DMSO Non-TG group (FIG. 9f)", "result": "preserved similarly"}, {"measurement": "decreased protein expression of bcl-2 in lumbar spinal cord", "setting": "[3]; [4]", "result": "improved"}, {"measurement": "increased protein expression of bax in lumbar spinal cord", "setting": "[3]; [4]", "result": "improved"}, {"measurement": "increased protein expression of cleaved caspase-3 in lumbar spinal cord", "setting": "[3]; [4]", "result": "improved"}]}
